Biological target: T1, hMAGL (MAGL-overexpressing membrane preparations from transiently transfected HEK293T cells) (Homo sapiens, UniProt Q99685)
T1 construct: expressed in transfected cells; host or cells: HEK293T (transient transfection), membrane preparations
T1 sequence (Q99685 1-303): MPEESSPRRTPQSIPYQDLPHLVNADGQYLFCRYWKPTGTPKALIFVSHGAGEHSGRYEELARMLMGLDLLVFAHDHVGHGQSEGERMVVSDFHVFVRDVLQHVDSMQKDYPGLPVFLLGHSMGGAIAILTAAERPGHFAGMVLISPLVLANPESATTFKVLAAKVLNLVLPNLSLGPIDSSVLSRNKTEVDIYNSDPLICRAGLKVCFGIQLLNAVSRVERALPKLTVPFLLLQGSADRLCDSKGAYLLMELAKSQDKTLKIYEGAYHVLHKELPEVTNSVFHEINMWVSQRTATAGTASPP
Assay: MAGL activity assay (2-AG hydrolysis, glycerol coupled to Amplifu Red fluorescence)
Assay type: biochemical
Conditions: hMAGL-overexpressing HEK293T membranes, 25 μM 2-AG substrate, 20 min. inhibitor incubation
Source text: The MAGL activity assay is based on the production of glycerol from 2-arachidonoylglycerol (2-AG) hydrolysis by MAGL-overexpressing membrane preparations from transiently transfected HEK293T cells, as previously reported in van der Wel T et al., “A natural substrate-based fluorescence assay for inhibitor screening on diacylglycerol lipase”, J Lipid Res., 2015, 56(4), 927-35. The produced glycerol is coupled to the oxidation of commercially available Amplifu™ Red (Sigma-Aldrich Chemie N.V., Zwijndrecht, Netherlands) via a multi-enzyme cascade, resulting in a fluorescent signal from the dye resorufin.
Standard assays were performed in HEMNB buffer (50 mM HEPES pH 7.4, 1 mM EDTA, 5 mM MgCl2, 100 mM NaCl, 0.5% (w/v) BSA) in black, flat bottom 96-wells plates. Final protein concentration of membrane preparations from overexpressing hMAGL HEK293T cells was 1.5 μg/mL (0.3 μg per well). Inhibitors were added from 40× concentrated DMSO stocks. […] Final assay concentrations: 0.2 U/mL GK, GPO and HRP, 0.125 mM ATP, 10 μM Amplifu™ Red, 25 μM 2-AG, 5% DMSO, 0.5% ACN in a total volume of 200 μL.
For IC50 determination, the MAGL-overexpressing membranes were incubated with different inhibitor concentrations. Slopes of corrected fluorescence in time were determined in the linear interval of t=10 to t=35 min and then scaled to the corrected positive control of hMAGL-overexpressing membranes treated with vehicle (DMSO) as a 100% activity reference point. The data was exported to GraphPad Prism 5.0 and analysed in a non-linear dose-response analysis with variable slope.

| Compound | IC50 [nM] |
| --- | --- |
| C[C@H]1[C@H](C)N(c2cc(Cl)ccn2)CCN1C(=O)c1ccc([S+]([O-])CC(=O)C(C)(F)F)c(Cl)c1 (mixture of isomers) [Example 83, (±) 1-((2-Chloro-4-(4-(4-chloropyridin-2-yl)-trans-2,3-dimethylpiperazine-1-carbonyl)phenyl)sulfinyl)-3,3-difluorobutan-2-one] | 3.39 |
| CCC(F)(F)C(=O)C[S+]([O-])c1ccc(C(=O)N2CCN(c3cc(Cl)ccn3)[C@@H](C)[C@@H]2C)cc1Cl (mixture of isomers) [Example 84, (±) 1-((2-Chloro-4-(4-(4-chloropyridin-2-yl)-trans-2,3-dimethylpiperazine-1-carbonyl)phenyl)sulfinyl)-3,3-difluoropentan-2-one] | 2.82 |
| C[C@H]1[C@H](C)N(c2cccc(Cl)c2)CCN1C(=O)c1ccc([S+]([O-])CC(=O)c2cccnc2)c(Cl)c1 (mixture of isomers) [Example 85, (±) 2-((2-Chloro-4-(4-(3-chlorophenyl)-trans-2,3-dimethylpiperazine-1-carbonyl)phenyl)sulfinyl)-1-(pyridin-3-yl)ethan-1-one] | 9770 |
| C[C@H]1[C@H](C)N(c2cccc(Cl)c2)CCN1C(=O)c1ccc([S+]([O-])CC(=O)c2ccc(F)cc2)c(Cl)c1 (mixture of isomers) [Example 86, (±) 2-((2-Chloro-4-(4-(3-chlorophenyl)-trans-2,3-dimethylpiperazine-1-carbonyl)phenyl)sulfinyl)-1-(4-fluorophenyl)ethan-1-one] | 1910 |
| C[C@H]1[C@H](C)N(c2cccc(Cl)c2)CCN1C(=O)c1ccc([S+]([O-])CC(=O)c2cccc(F)c2)c(Cl)c1 (mixture of isomers) [Example 87, (±) 2-((2-Chloro-4-(4-(3-chlorophenyl)-trans-2,3-dimethylpiperazine-1-carbonyl)phenyl)sulfinyl)-1-(3-fluorophenyl)ethan-1-one] | > 10000 |
| C[C@H]1[C@H](C)N(c2cccc(Cl)c2)CCN1C(=O)c1ccc([S+]([O-])CC(=O)c2cccnn2)c(Cl)c1 (mixture of isomers) [Example 88, (±) 2-((2-Chloro-4-(4-(3-chlorophenyl)-trans-2,3-dimethylpiperazine-1-carbonyl)phenyl)sulfinyl)-1-(pyridazin-3-yl)ethan-1-one] | 251 |
| C[C@H]1[C@H](C)N(c2cccc(Cl)c2)CCN1C(=O)c1ccc([S+]([O-])CC(=O)c2cc(F)cc(F)c2)c(Cl)c1 (mixture of isomers) [Example 89, (±) 2-((2-Chloro-4-(4-(3-chlorophenyl)-trans-2,3-dimethylpiperazine-1-carbonyl)phenyl)sulfinyl)-1-(3,5-difluorophenyl)ethan-1-one] | 2090 |
| C[C@H]1[C@H](C)N(c2cccc(Cl)c2)CCN1C(=O)c1ccc([S+]([O-])CC(=O)c2ccc(C(F)(F)F)nc2)c(Cl)c1 (mixture of isomers) [Example 90, (±) 2-((2-Chloro-4-(4-(3-chlorophenyl)-trans-2,3-dimethylpiperazine-1-carbonyl)phenyl)sulfinyl)-1-(6-(trifluoromethyl)pyridin-3-yl)ethan-1-one] | 813 |
| C[C@H]1[C@H](C)N(c2cccc(Cl)c2)CCN1C(=O)c1ccc([S+]([O-])CC(=O)c2ccc(Cl)c(C(F)(F)F)c2)c(Cl)c1 (mixture of isomers) [Example 91, (±) 1-(4-Chloro-3-(trifluoromethyl)phenyl)-2-((2-chloro-4-(4-(3-chlorophenyl)-trans-2,3-dimethyl-piperazine-1-carbonyl)-phenyl)sulfinyl)ethan-1-one] | > 10000 |
| C[C@H]1[C@H](C)N(c2cccc(Cl)c2)CCN1C(=O)c1ccc([S+]([O-])CC(=O)c2ccc(F)c(C(F)(F)F)c2)c(Cl)c1 (mixture of isomers) [Example 92, (±) 2-((2-Chloro-4-(4-(3-chlorophenyl)-trans-2,3-dimethylpiperazine-1-carbonyl)phenyl)sulfinyl)-1-(4-fluoro-3-(trifluoromethyl)phenyl)ethan-1-one] | > 10000 |
| C[C@H]1[C@H](C)N(c2cccc(Cl)c2)CCN1C(=O)c1ccc([S+]([O-])CC(=O)c2cccc(F)c2F)c(Cl)c1 (mixture of isomers) [Example 93, (±) 2-((2-Chloro-4-(4-(3-chlorophenyl)-trans-2,3-dimethylpiperazine-1-carbonyl)phenyl)sulfinyl)-1-(2,3-difluorophenyl)ethan-1-one] | 575 |
| C[C@H]1[C@H](C)N(c2cccc(Cl)c2)CCN1C(=O)c1ccc([S+]([O-])CC(=O)c2ccc(F)c(F)c2)c(Cl)c1 (mixture of isomers) [Example 94, (±) 2-((2-Chloro-4-(4-(3-chlorophenyl)-trans-2,3-dimethylpiperazine-1-carbonyl)phenyl)sulfinyl)-1-(3,4-difluorophenyl)ethan-1-one] | 759 |
| C[C@H]1[C@H](C)N(c2cccc(Cl)c2)CCN1C(=O)c1ccc([S+]([O-])CC(=O)c2ccccc2F)c(Cl)c1 (mixture of isomers) [Example 95, (±) 2-((2-Chloro-4-(4-(3-chlorophenyl)-trans-2,3-dimethylpiperazine-1-carbonyl)phenyl)sulfinyl)-1-(2-fluorophenyl)ethan-1-one] | 1620 |
| C[C@H]1[C@H](C)N(c2cccc(Cl)c2)CCN1C(=O)c1ccc([S+]([O-])CC(=O)c2ccnnc2)c(Cl)c1 (mixture of isomers) [Example 96, (±) 2-((2-Chloro-4-(4-(3-chlorophenyl)-trans-2,3-dimethylpiperazine-1-carbonyl)phenyl)sulfinyl)-1-(pyridazin-4-yl)ethan-1-one] | 708 |
| C[C@H]1[C@H](C)N(c2cccc(Cl)c2)CCN1C(=O)c1ccc([S+]([O-])CC(=O)c2ccc(F)cc2F)c(Cl)c1 (mixture of isomers) [Example 97, (±) 2-((2-Chloro-4-(4-(3-chlorophenyl)-trans-2,3-dimethylpiperazine-1-carbonyl)phenyl)sulfinyl)-1-(2,4-difluorophenyl)ethan-1-one] | 234 |
| C[C@H]1[C@H](C)N(c2cccc(Cl)c2)CCN1C(=O)c1ccc([S+]([O-])CC(=O)c2ccc(C#N)cc2)c(Cl)c1 (mixture of isomers) [Example 99, (±) 4-(2-((2-Chloro-4-(4-(3-chlorophenyl)-trans-2,3-dimethyl-piperazine-1-carbonyl)phenyl)sulfinyl)acetyl)benzonitrile] | 91.2 |
| C[C@H]1[C@H](C)N(c2cccc(Cl)c2)CCN1C(=O)c1ccc([S+]([O-])CC(=O)c2ccncn2)c(Cl)c1 (mixture of isomers) [Example 100, (±) 2-((2-Chloro-4-(4-(3-chlorophenyl)-trans-2,3-dimethylpiperazine-1-carbonyl)phenyl)sulfinyl)-1-(pyrimidin-4-yl)ethan-1-one] | 87.1 |
| C[C@H]1[C@H](C)N(c2cccc(Cl)c2)CCN1C(=O)c1ccc([S+]([O-])CC(=O)c2cnccn2)c(Cl)c1 (mixture of isomers) [Example 101, (±) 2-((2-Chloro-4-(4-(3-chlorophenyl)-trans-2,3-dimethylpiperazine-1-carbonyl)phenyl)sulfinyl)-1-(pyrazin-2-yl)ethan-1-one] | 1100 |
| C[C@H]1[C@H](C)N(c2cccc(Cl)c2)CCN1C(=O)c1ccc([S+]([O-])CC(=O)c2ncccn2)c(Cl)c1 (mixture of isomers) [Example 102, (±) 2-((2-Chloro-4-(4-(3-chlorophenyl)-trans-2,3-dimethylpiperazine-1-carbonyl)phenyl)sulfinyl)-1-(pyrimidin-2-yl)ethan-1-one] | 28.2 |

From US20230121721A1, “MONOACYLGLYCEROL LIPASE INHIBITORS” (STICHTING HET NEDERLANDS KANKER INSTITUUT - ANTONI VAN …, priority 2020, published 2023)
